Measurements from the NIST ThermoML archive (doi:10.1016/j.fluid.2019.01.011).
Numbers after ± are expanded uncertainties.

Conditions: Crystal; DSC

Row | Triple point temperature [K] | SMILES
1 | 918 ± 10 | [Cl-].[Cs+] [cesium chloride]
2 | 587 ± 10 | [Cl-].[Cl-].[Zn+2] [zinc chloride]
